These results are taken from patent US20180282323A1, “Mesoionic imidazole derivatives as insecticides” (BAYER CROPSCIENCE AKTIENGESELLSCHAFT, priority 2015, published 2018).

Usually chromatographic logP stands for a lipophilicity value derived from retention on a column.

Where two headings read alike, the source gives them in different places.

In one series the test system is Musca domestica. In words: Musca domestica test. It counts as in vivo. As to conditions: application rate 100 ppm, adult houseflies, after 2 days. On the procedure: Musca domestica Test Solvent: dimethyl sulphoxide
(§1) To produce a suitable active ingredient formulation, 10 mg of active ingredient are mixed with 0.5 ml of dimethyl sulphoxide, and the concentrate is diluted with water to the desired concentration.
Vessels containing a sponge treated with sugar solution and the active ingredient formulation of the desired concentration are populated with 10 adult houseflies (Musca domestica).
After 2 days, the kill in % is determined. 100% means that all of the flies have been killed; 0% means that none of the flies have been killed.

Another series concerns Boophilus microplus. Briefly: Boophilus microplus injection test. The format is in vivo. As to conditions: application rate 20 μg/animal, assessed after 7 days by laying of fertile eggs. As for the experimental part:
Boophilus microplus—Injection Test Solvent: dimethyl sulphoxide
To produce a suitable active ingredient formulation, 10 mg of active ingredient are mixed with 0.5 ml of solvent and the concentrate is diluted with solvent to the desired concentration.
1 μl of the active ingredient solution is injected into the abdomen of 5 engorged adult female cattle ticks (Boophilus microplus). The animals are transferred into dishes and kept in a climate-controlled room.
Efficacy is assessed after 7 days by laying of fertile eggs. Eggs which are not visibly fertile are stored in a climate-controlled cabinet until the larvae hatch after about 42 days. An efficacy of 100% means that none of the ticks has laid any fertile eggs; 0% means that all the eggs are fertile.

The next series concerns Lucilia cuprina. In words: Lucilia cuprina test. The conditions noted are these: application rate 100 ppm, L1 larvae, after 2 days. The format is in vivo. As for the experimental part:
Lucilia cuprina Test Solvent: dimethyl sulphoxide
as §1
About 20 L1 larvae of the Australian sheep blowfly (Lucilia cuprina) are transferred into a test vessel containing minced horsemeat and the active ingredient formulation of the desired concentration.
After 2 days, the kill in % is determined. 100% means that all the larvae have been killed; 0% means that no larvae have been killed.

For series [1], the system named is Myzus persicae. In words: Myzus persicae oral test. As to conditions: application rate 20 ppm, oral uptake through parafilm, after 5 days; for pest or weed control at 20 ppm: Myzus persicae, 120 h, read-out: efficacy. It counts as in vivo. The essentials: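 Oral feeding format: mixed-stage Myzus persicae imbibe acetone/water compound formulation in sugared IPL41 medium through parafilm. Efficacy assessed as percent aphids killed at day 5.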

Series [2] has as its system Myzus persicae. Briefly: Myzus persicae spray test (Chinese cabbage leaf discs). It counts as in vivo. As to conditions: application rate 500 g/ha, after 6 days. The essentials: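 Active ingredient was formulated in acetone/DMF and diluted with water containing 1000 ppm emulsifier. Chinese cabbage leaf discs infested with all aphid stages were sprayed, and % kill was scored after 6 days (100% = all aphids dead).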

The subject of another series is Diabrotica balteata. In words: Diabrotica balteata spray test. The format is in vivo. As to conditions: application rate 160 μg/well, wheat grains with beetle larvae, after 7 days. The essentials:
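Compound in acetone/DMF with emulsifier water sprayed onto wheat seedlings germinated one day on agar, 5 grains per well. Each well then infested with 10-20 Diabrotica balteata larvae. Efficacy scored after 7 days: 100% = plant growth as uninfected control, 0% = no plants grown.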

Series [3] in a line: log P by HPLC on reversed-phase column (EEC directive 79/831 Annex V.A8). The format is physicochemical. As to conditions: for log p: HPLC on reversed-phase column (footnote a); for log p a): HPLC on reversed-phase column. The essentials:
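Reversed-phase (C18) HPLC at 43° C, following EEC directive 79/831 Annex V.A8.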

Series [4] deals with Myzus persicae. Briefly: Myzus persicae spray test (bell pepper plants). As to conditions: application rate 100 ppm, after 6 days. It counts as in vivo. On the procedure: Myzus persicae—Spray Test Solvent: 14 parts by weight of dimethylformamide Emulsifier: alkylaryl polyglycol ether
To produce a suitable active ingredient formulation, 1 part by weight of active ingredient is dissolved with the stated parts by weight of solvent and made up with water containing an emulsifier concentration of 1000 ppm until the desired concentration is attained. To produce further test concentrations, the formulation is diluted with emulsifier-containing water. If the addition of ammonium salts or/and penetrants is required, these are each added in a concentration of 1000 ppm to the formulation solution.
Bell pepper plants (Capsicum annuum) severely infested with the green peach aphid (Myzus persicae) are treated by spraying with the active ingredient formulation in the desired concentration.
After 6 days, the kill in % is determined. 100% means that all of the aphids have been killed; 0% means that none of the aphids have been killed.

Another series concerns Ctenocephalides felis. Briefly: Ctenocephalides felis in vitro contact test with adult cat fleas. It counts as in vivo. The conditions noted are these: application rate 5 μg/cm^2, after 48 h, adult cat fleas dead or moribund. On the procedure:
Ctenocephalides felis—In Vitro Contact Tests with Adult Cat Fleas
For the coating of the test tubes, 9 mg of active ingredient are first dissolved in 1 ml of acetone p.a. and then diluted to the desired concentration with acetone p.a. 250 μl of the solution are distributed homogeneously on the inner walls and the base of a 25 ml test tube by turning and rocking on an orbital shaker (rocking rotation at 30 rpm for 2 h). With 900 ppm of active ingredient solution and internal surface area 44.7 cm^2, given homogeneous distribution, an area-based dose of 5 μg/cm^2 is achieved.
After the solvent has evaporated off, the tubes are populated with 5-10 adult cat fleas (Ctenocephalides felis), sealed with a perforated plastic lid and incubated in a horizontal position at room temperature and ambient humidity. After 48 h, efficacy is determined. To this end, the test tubes are stood upright and the fleas are knocked to the base of the tube. Fleas which remain motionless at the base or move in an uncoordinated manner are considered to be dead or moribund.
100% efficacy means that all the fleas were dead or moribund. 0% efficacy means that no fleas were harmed.

A further series concerns Phaedon cochleariae. Briefly: Phaedon cochleariae spray test. The format is in vivo. The conditions noted are these: application rate 500 g/ha, Chinese cabbage leaf discs, larvae, after 7 days. As for the experimental part:
Phaedon cochleariae—Spray Test Solvent: 78.0 parts by weight of acetone • • 1.5 parts by weight of dimethylformamide Emulsifier: alkylaryl polyglycol ether
To produce a suitable active ingredient formulation, 1 part by weight of active ingredient is dissolved with the stated parts by weight of solvent and made up with water containing an emulsifier concentration of 1000 ppm until the desired concentration is attained. To produce further test concentrations, the formulation is diluted with emulsifier-containing water.
Discs of Chinese cabbage leaves (Brassica pekinensis) are sprayed with an active ingredient formulation of the desired concentration and, after drying, populated with larvae of the mustard beetle (Phaedon cochleariae).
After 7 days, the efficacy in % is determined. 100% means that all the beetle larvae have been killed; 0% means that no beetle larvae have been killed.

For another series, the system named is Meloidogyne incognita. Briefly: Meloidogyne incognita test. It counts as in vivo. The conditions noted are these: application rate 20 ppm, formation of galls on lettuce after 14 days. As for the experimental part:
Meloidogyne incognita Test Solvent: 125.0 parts by weight of acetone
To produce a suitable preparation of active ingredient, 1 part by weight of active ingredient is mixed with the stated amount of solvent and the concentrate is diluted with water to the desired concentration.
Vessels are filled with sand, active ingredient solution, an egg/larvae suspension of the southern root-knot nematode (Meloidogyne incognita) and lettuce seeds. The lettuce seeds germinate and the plants develop. The galls develop on the roots.
After 14 days, the nematicidal efficacy in % is determined by the formation of galls. 100% means that no galls were found; 0% means that the number of galls on the treated plants corresponds to the untreated control.

Consider `COCC(=O)c1c([O-])n(Cc2cnc(Cl)s2)c2cccc[n+]12` [Example I-1-008, 1-[(2-Chloro-1,3-thiazol-5-yl)methyl]-3-(methoxyacetyl)-1H-imidazo[1,2-a]pyridin-4-ium-2-olate], for which the entries for the “efficacy (kill in %)” value in the series with Musca domestica and with Lucilia cuprina were 100% and 90%, respectively. Moreover, the efficacy with Boophilus microplus, with Myzus persicae [2] and with Diabrotica balteata was 100% each time. Moreover, the pest or weed control at 20 ppm with Myzus persicae [1] worked out at 100%. Besides, the chromatographic logP in series [3] and in series [3] (pH 2.7) was 1.23 in each case.

On to `CCOCC(=O)c1c([O-])n(Cc2cnc(Cl)s2)c2cccc[n+]12` [Example I-1-032], for which the “efficacy (kill in %)” value with Musca domestica is 100%; with Myzus persicae [4], 100%; in the series on Lucilia cuprina, 90%. Further, the efficacy in the series on Ctenocephalides felis, in the series with Myzus persicae [1] and in the series on Diabrotica balteata was 100% each time. This compound showed a log p in series [3] of 1.57.

On to `CSCC(=O)c1c([O-])n(Cc2cnc(Cl)s2)c2cccc[n+]12` [Example I-1-034], for which the “efficacy (kill in %)” value in the series on Musca domestica came to 80%; in the series on Lucilia cuprina, 100%. Further, the efficacy in the series on Boophilus microplus was determined as 80%; in the series on Myzus persicae [1], 100%; in the series with Myzus persicae [2] it was 90%; in the series on Diabrotica balteata, 100%. Also, the log p in [3] turned out to be 1.73.

Turning to `COCC(=O)c1c([O-])n(Cc2cnc(Cl)s2)c2c(C)ccc[n+]12` [Example I-1-082], the efficacy in the series with Phaedon cochleariae, with Ctenocephalides felis, in the series on Myzus persicae [1], in the series with Myzus persicae [2] and with Diabrotica balteata was 100% in each case. The compound further registered a log p in [3] of 1.46.

As for `CCOCC(=O)c1c([O-])n(Cc2cnc(Cl)s2)c2c(C)ccc[n+]12` [Example I-1-083], the efficacy is 100% in the series on Phaedon cochleariae, 100% in the series with Myzus persicae [1], 90% in the series with Myzus persicae [2] and 100% in the series on Diabrotica balteata. The log p in [3] amounted to 1.72.

On to `Cc1ccc[n+]2c(C(=O)Cn3ccc(Cl)n3)c([O-])n(Cc3cnc(Cl)s3)c12` [Example I-1-093], for which the efficacy with Phaedon cochleariae and in the series with Myzus persicae [1] was 100% in each case. The log p in series [3] is recorded as 2.23.

As to `COc1cnn(CC(=O)c2c([O-])n(Cc3cnc(Cl)s3)c3c(C)ccc[n+]23)c1` [Example I-1-094], the efficacy with Phaedon cochleariae amounted to 100%. The same compound yielded a log p in series [3] of 1.75.

Turning to `CCCOCC(=O)c1c([O-])n(Cc2cnc(Cl)s2)c2c(C)ccc[n+]12` [Example I-1-097], the efficacy is 100% in the series with Phaedon cochleariae, 100% in the series with Myzus persicae [1], 90% in the series with Myzus persicae [2] and 100% with Diabrotica balteata. This compound showed a log p in [3] of 2.11.

With `O=C(NC1CC1)c1c([O-])n(Cc2cnc(Cl)s2)c2cccc[n+]12` [Example I-1-111, 1-[(2-Chloro-1,3-thiazol-5-yl)methyl]-3-(cyclopropylcarbamoyl)-1H-imidazo[1,2-a]pyridin-4-ium-2-olate], the “efficacy (kill in %)” value in the series with Musca domestica and in the series with Lucilia cuprina was 100% throughout. Also, the efficacy in the series on Ctenocephalides felis, in the series on Myzus persicae [2] and in the series with Diabrotica balteata was 100% in each case. Besides, the pest or weed control at 20 ppm with Myzus persicae [1] is 100%. In addition, the chromatographic logP in [3] and in series [3] (pH 2.7) was 1.63 in each case.

As for `O=C(NCC1CC1)c1c([O-])n(Cc2cnc(Cl)s2)c2cccc[n+]12` [Example I-1-143], the efficacy with Ctenocephalides felis and in the series with Diabrotica balteata was 100% throughout. The compound further yielded a nematicidal efficacy in the series on Meloidogyne incognita of 90%. Further, the log p in [3] is 1.99.

In the case of `CC(C)CNC(=O)c1c([O-])n(Cc2cnc(Cl)s2)c2cccc[n+]12` [Example I-1-147], in the series on Myzus persicae [4], the “efficacy (kill in %)” value was 100%. Moreover, the efficacy in the series on Ctenocephalides felis amounted to 80%; in the series on Myzus persicae [1], 100%; with Diabrotica balteata, 100%. In the series on Meloidogyne incognita, this compound showed a nematicidal efficacy of 90%. The compound also returned a log p in series [3] of 2.29.

With `O=C(NC1CC1)c1c([O-])n(Cc2ccc(Cl)nc2)c2cccc[n+]12` [Example I-1-154], the efficacy is on record as 100% with Phaedon cochleariae, 100% in the series with Myzus persicae [1] and 80% in the series with Diabrotica balteata. The “efficacy (kill in %)” value with Myzus persicae [4] is reported as 100%; in the series with Lucilia cuprina, 95%. For the same compound, in [3], the log p was found to be 1.59.

On to `Cc1ccccc1NC(=O)c1c([O-])n(Cc2cnc(Cl)s2)c2cccc[n+]12` [Example I-1-239], for which the efficacy in the series with Ctenocephalides felis and with Myzus persicae [1] was 100% in each case. For the same compound, the “log p a)” value in series [3] is recorded as 3.03.

On to `COc1ccc[n+]2c(C(=O)NC3CC3)c([O-])n(Cc3cnc(Cl)s3)c12` [Example I-1-240], for which the efficacy in the series with Ctenocephalides felis and in the series on Myzus persicae [1] was 100% each time. Besides, in [3], the “log p a)” value was 1.96.

For the compound `Cc1ccc(Cn2c([O-])c(C(=O)NC3CC3)[n+]3ccccc23)cn1` [Example I-1-243], the efficacy with Ctenocephalides felis and in the series with Myzus persicae [1] was 100% in each case. Further, the “log p a)” value in series [3] is listed as 0.81.

In turn, `COC(=O)c1c([O-])n(C(C)c2cnc(Cl)s2)c2cccc[n+]12` (centres unmarked) [Example I-1-262] had an efficacy in the series with Phaedon cochleariae of 83%. Also, the “log p a)” value in series [3] was found to be 1.45.

In the case of `Cc1ccc[n+]2c(C(=O)Nc3c(Cl)cccc3Cl)c([O-])n(Cc3cnc(Cl)s3)c12` [Example I-1-277], the efficacy stood at 83% in the series on Phaedon cochleariae, 100% in the series on Myzus persicae [1] and 100% in the series with Diabrotica balteata. The same compound came in with a nematicidal efficacy with Meloidogyne incognita of 90%. Besides, the “log p a)” value in series [3] was 3.11.
